The values that follow come from patent publication US8318762B2, “Pyrazolospiroketone acetyl-CoA carboxylase inhibitors” (Pfizer Inc., priority 2008, dated 2012).

What is called IC50 is the concentration that gives 50% inhibition.

The assay concerns the target T1, recombinant human ACC2 (Homo sapiens, UniProt O00763).
T1 construct: a full length Cytomax clone of ACC2 was purchased from Cambridge Bioscience Limited; made in house; host or cells: CHO cells (tetracycline induction, pcDNA5 FRT TO-TOPO); purified on a Softlink Soft Release Avidin column
The assay is described as follows: Measurement of human ACC2 inhibition (recombinant hACC2 Transcreener ADP detection FP assay). The assay is classed as biochemical. The method, then: [3] Measurement of human ACC2 inhibition. Human ACC2 inhibition was measured using purified recombinant human ACC2 (hrACC2). […] The ACC2 was expressed in CHO cells by tetracycline induction and harvested in 5 liters of DMEM/F12 with glutamine, biotin, hygromycin and blasticidin with 1 μg/mL tetracycline (Invitrogen, Carlsbad, Calif.). The conditioned medium containing ACC2 was then applied to a Softlink Soft Release Avidin column (Promega, Madison, Wis.) and eluted with 5 mM biotin. […] The purified ACC2 was dialyzed in 50 mM Tris, 200 mM NaCl, 4 mM DTT, 2 mM EDTA, and 5% glycerol. […] The final conditions for the assay were 50 mM HEPES, pH7.5, 5 mM MgCl2, 5 mM tripotassium citrate, 2 mM DTT, 0.5 mg/mL BSA, 30 μM acetyl-CoA, 50 μM ATP, and 8 mM KHCO3. Typically, a 10 μl reaction was run for 1 hour at room temperature, and 10 μl of Transcreener stop and detect buffer was added and incubated for an additional 1 hour.

Setting [1] is: recombinant hACC2 transcreener assay, read-out: rhACC2 IC50.

Like-named read-outs stand apart in the source and are kept apart here. Where only a bound is given, the exact number is not on record here.

T1 sequence (O00763 whole entry): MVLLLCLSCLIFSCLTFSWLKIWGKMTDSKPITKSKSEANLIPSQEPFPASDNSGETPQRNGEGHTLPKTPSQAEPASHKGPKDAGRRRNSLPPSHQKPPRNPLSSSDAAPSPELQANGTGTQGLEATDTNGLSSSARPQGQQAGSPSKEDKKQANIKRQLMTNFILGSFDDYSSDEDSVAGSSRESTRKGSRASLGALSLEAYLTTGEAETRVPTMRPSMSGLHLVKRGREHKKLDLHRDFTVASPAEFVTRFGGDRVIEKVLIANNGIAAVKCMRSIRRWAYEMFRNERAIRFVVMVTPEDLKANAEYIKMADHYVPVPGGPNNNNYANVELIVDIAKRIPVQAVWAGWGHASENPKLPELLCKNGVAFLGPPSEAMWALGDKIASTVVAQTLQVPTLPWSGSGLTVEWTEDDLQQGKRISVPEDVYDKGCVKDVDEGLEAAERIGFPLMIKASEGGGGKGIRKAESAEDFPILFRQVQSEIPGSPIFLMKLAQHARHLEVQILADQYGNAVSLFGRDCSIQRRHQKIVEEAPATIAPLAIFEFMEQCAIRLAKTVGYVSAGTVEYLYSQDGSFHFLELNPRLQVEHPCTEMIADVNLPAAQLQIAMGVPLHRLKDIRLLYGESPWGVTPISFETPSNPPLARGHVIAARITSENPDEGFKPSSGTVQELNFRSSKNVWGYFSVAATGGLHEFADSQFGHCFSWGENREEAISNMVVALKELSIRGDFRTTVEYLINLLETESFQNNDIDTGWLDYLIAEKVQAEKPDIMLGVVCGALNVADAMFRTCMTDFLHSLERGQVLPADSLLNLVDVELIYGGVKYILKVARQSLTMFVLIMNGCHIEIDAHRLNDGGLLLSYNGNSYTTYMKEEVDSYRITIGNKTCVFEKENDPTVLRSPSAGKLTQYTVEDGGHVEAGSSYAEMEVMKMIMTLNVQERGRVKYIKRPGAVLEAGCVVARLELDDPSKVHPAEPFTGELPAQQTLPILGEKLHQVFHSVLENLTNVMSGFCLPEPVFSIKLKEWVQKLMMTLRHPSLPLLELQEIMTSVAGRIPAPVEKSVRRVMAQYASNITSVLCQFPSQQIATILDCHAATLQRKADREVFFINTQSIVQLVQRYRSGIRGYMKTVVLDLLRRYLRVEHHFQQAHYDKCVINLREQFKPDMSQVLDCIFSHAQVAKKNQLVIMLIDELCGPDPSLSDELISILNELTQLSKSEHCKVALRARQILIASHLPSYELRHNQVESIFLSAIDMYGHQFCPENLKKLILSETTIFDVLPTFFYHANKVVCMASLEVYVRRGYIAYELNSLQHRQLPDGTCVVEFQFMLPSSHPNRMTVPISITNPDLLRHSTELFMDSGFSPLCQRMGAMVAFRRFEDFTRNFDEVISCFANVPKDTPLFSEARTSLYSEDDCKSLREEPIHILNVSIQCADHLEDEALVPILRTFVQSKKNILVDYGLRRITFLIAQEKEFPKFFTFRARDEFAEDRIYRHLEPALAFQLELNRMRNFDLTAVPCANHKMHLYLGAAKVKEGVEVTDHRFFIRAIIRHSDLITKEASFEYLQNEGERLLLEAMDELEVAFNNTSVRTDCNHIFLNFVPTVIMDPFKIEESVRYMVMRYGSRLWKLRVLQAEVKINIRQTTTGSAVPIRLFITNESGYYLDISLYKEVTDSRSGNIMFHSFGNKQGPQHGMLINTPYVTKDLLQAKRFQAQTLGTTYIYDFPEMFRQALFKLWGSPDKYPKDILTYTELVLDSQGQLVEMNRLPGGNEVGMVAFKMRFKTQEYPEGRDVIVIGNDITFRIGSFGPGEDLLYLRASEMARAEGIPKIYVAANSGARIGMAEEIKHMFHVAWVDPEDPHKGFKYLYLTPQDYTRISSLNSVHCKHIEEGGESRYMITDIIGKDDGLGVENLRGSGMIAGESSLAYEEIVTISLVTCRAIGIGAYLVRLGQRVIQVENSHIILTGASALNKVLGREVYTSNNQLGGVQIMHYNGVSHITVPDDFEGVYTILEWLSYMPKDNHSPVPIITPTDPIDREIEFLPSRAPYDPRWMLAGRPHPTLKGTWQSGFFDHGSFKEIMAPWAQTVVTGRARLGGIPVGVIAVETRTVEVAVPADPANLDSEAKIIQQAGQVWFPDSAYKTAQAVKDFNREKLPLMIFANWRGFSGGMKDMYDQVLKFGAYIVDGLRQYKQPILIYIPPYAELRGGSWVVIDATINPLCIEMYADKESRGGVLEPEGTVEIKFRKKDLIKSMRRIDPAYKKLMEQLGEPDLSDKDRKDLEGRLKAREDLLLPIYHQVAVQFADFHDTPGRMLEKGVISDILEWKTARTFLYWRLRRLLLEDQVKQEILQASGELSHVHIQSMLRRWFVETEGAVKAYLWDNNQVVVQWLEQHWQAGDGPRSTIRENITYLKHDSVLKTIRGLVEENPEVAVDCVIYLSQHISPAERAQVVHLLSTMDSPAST

Turning to `CCc1n[nH]c2c(C)cc(C(=O)N3CCC4(CC3)CC(=O)c3nn(C(C)C)cc3O4)cc12` [1.017], the IC50 under setting [1] turned out to be 3 nM.
For `Cc1cc(C(=O)N2CCC3(CC2)CC(=O)c2nn(C(C)(C)C)cc2O3)cc2[nH]cnc12` [3.008], the IC50 under setting [1] is 6 nM.
Turning to `Cc1n[nH]c2cc(C(=O)N3CCC4(CC3)CC(=O)c3nn(C(C)C)cc3O4)ccc12` [2.005], the IC50 under setting [1] is 33 nM.
Consider `CC(C)(C)n1cc2c(n1)C(=O)CC1(CCN(C(=O)c3ccc4cnsc4c3)CC1)O2` [24.001], for which, under setting [1], the IC50 is 23 nM.
Still for that read-out and setting: with `CC(C)(C)n1cc2c(n1)C(=O)CC1(CCN(C(=O)c3ccc4sncc4c3)CC1)O2` [7.004] the figure was 23 nM.
As for `COc1cc(-n2nc3c(c2C)OC2(CCN(C(=O)c4cc(C)c5[nH]ncc5c4)CC2)CC3=O)ccc1C#N` [1.028], the concentration for half-maximal inhibition (IC50) under setting [1] came out at 127 nM.
In the case of `CCn1nc2c(c1C)OC1(CCN(C(=O)c3cc(Cl)c4[nH]nc(C)c4c3)CC1)CC2=O` [1.111], under setting [1], the IC50 is 12 nM.
`CCc1c2c(nn1C)C(=O)CC1(CCN(C(=O)c3cc(C)c4[nH]ncc4c3)CC1)O2` [1.035]: the IC50 under setting [1] was 367 nM.
Regarding `CCn1nc2c(c1C)OC1(CCN(C(=O)c3ccc4ncn(C)c4c3)CC1)CC2=O` [3.016], the IC50 under setting [1] stood at 271 nM.
On to `CC(C)n1cc2c(n1)C(=O)CC1(CCN(C(=O)c3cc(Cl)c4[nH]ncc4c3)CC1)O2` [1.066], for which the IC50 under setting [1] is 26 nM.
On to `CC(C)n1cc2c(n1)C(=O)CC1(CCN(C(=O)c3ccc4ocnc4c3)CC1)O2` [9.001], for which the IC50 under setting [1] amounted to 300 nM.
Take `CC(C)(C)n1cc2c(n1)C(=O)CC1(CCN(C(=O)c3ccc4cn[nH]c4c3)CC1)O2` [2.012]: the IC50 under setting [1] came to 7 nM.
On to `COc1c(C(=O)N2CCC3(CC2)CC(=O)c2nn(C(C)(C)C)cc2O3)ccc2cn[nH]c12` [2.020], for which the IC50 under setting [1] is 27 nM.
With `CCn1nc2c(c1C)OC1(CCN(C(=O)c3ccc4c(cnn4C)c3)CC1)CC2=O` [1.112], under setting [1], the IC50 came out at 79 nM.
For `Cc1cc(C(=O)N2CCC3(CC2)CC(=O)c2nn(C)cc2O3)cc2cn[nH]c12` [1.029], the IC50 came out at 629 nM.
Take `CC(C)(C)n1cc2c(n1)C(=O)CC1(CCN(C(=O)c3ccc4cc[nH]c(=O)c4c3)CC1)O2` [21.001]: under setting [1], the IC50 came to 16 nM.
Consider `CCn1nc2c(c1C)OC1(CCN(C(=O)c3ccc4snc(N)c4c3)CC1)CC2=O` [7.003], for which the IC50 under setting [1] worked out at 19 nM.
In the case of `CCOc1cc(C(=O)N2CCC3(CC2)CC(=O)c2nn(CC)c(C)c2O3)cc2c(CC)n[nH]c12` [1.018], the IC50 under setting [1] stood at 34 nM.
Consider `CCc1n[nH]c2c(OC)cc(C(=O)N3CCC4(CC3)CC(=O)c3nn(C5CCCC5)cc3O4)cc12` [1.049], for which the IC50 under setting [1] was 7 nM.
Turning to `Cc1n[nH]c2c(C)cc(C(=O)N3CCC4(CC3)CC(=O)c3nn(CC(C)C)c(C)c3O4)cc12` [1.129], the IC50 under setting [1] was 5 nM.
Turning to `COc1cccc2cc(C(=O)N3CCC4(CC3)CC(=O)c3nn(C(C)(C)C)cc3O4)ccc12` [6.006], the IC50 under setting [1] is 7 nM.
The same measure, in the same setting: under `CCCn1cc2c(n1)C(=O)CC1(CCN(C(=O)c3cc(C)c4[nH]nc(Cl)c4c3)CC1)O2` [1.109] stands 12 nM; under `CCc1cc(C(=O)N2CCC3(CC2)CC(=O)c2nn(C)cc2O3)cc2cn[nH]c12` [1.059], 210 nM.
For `CC(C)n1cc2c(n1)C(=O)CC1(CCN(C(=O)c3ccc4[nH]ncc4c3)CC1)O2` [1.067], the IC50 under setting [1] was 50 nM.
On to `Cc1noc2cc(C(=O)N3CCC4(CC3)CC(=O)c3nn(C(C)C)cc3O4)ccc12` [23.001], for which the IC50 under setting [1] amounted to 585 nM.
Still for that read-out and setting: under `COc1cc(C(=O)N2CCC3(CC2)CC(=O)c2nn(C(C)C)cc2O3)cc2c(C)n[nH]c12` [1.075] stands 6 nM.
Consider `CCn1nc2c(c1C)OC1(CCN(C(=O)c3ccc4[nH]ncc4c3)CC1)CC2=O` [1.068], for which the IC50 under setting [1] was 84 nM.
As for `CCn1nc2c(c1C)OC1(CCN(C(=O)c3ccc4c(c3)CCC(=O)N4)CC1)CC2=O` [13.001], the IC50 under setting [1] amounted to 421 nM.
The same measure, in the same setting: under `Cc1n[nH]c2cc(C(=O)N3CCC4(CC3)CC(=O)c3nn(C(C)(C)C)cc3O4)ccc12` [2.010] stands 28 nM; under `CCc1cc(C(=O)N2CCC3(CC2)CC(=O)c2nn(CC)c(C)c2O3)cc2c(C)n[nH]c12` [1.113], 10 nM.
With `CCn1nc2c(c1C)OC1(CCN(C(=O)c3ccc4c(c3)nc(C)n4CC)CC1)CC2=O` [8.004], under setting [1], the IC50 is 481 nM.
Consider `Cc1n[nH]c2c(C)cc(C(=O)N3CCC4(CC3)CC(=O)c3nn(C(C)(C)C)c(C)c3O4)cc12` [1.011], for which the IC50 under setting [1] amounted to 15 nM.
On the same count and under the same terms, with `CC(C)(C)n1cc2c(n1)C(=O)CC1(CCN(C(=O)c3ccc4ocnc4c3)CC1)O2` [9.002] the figure was 291 nM.
Consider `CCc1n[nH]c2c(OC)cc(C(=O)N3CCC4(CC3)CC(=O)c3nn(C5CCCCC5)cc3O4)cc12` [1.048], for which, under setting [1], the IC50 came out at 18 nM.
With `CCn1cc2c(n1)C(=O)CC1(CCN(C(=O)c3ccc4[nH]nc(C)c4c3)CC1)O2` [1.083], under setting [1], the IC50 came out at 43 nM.
On the same count and under the same terms, with `CCn1nc2c(c1C)OC1(CCN(C(=O)c3ccc4cn[nH]c4c3)CC1)CC2=O` [2.011] the figure was 82 nM; with `COc1cc(C(=O)N2CCC3(CC2)CC(=O)c2nn(C(C)C)cc2O3)cc2cn[nH]c12` [1.051], 17 nM.
Consider `CC(C)n1cc2c(n1)C(=O)CC1(CCN(C(=O)c3ccc4snc(N)c4c3)CC1)O2` [7.001], for which the IC50 under setting [1] came out at 16 nM.
Regarding `CCn1cc2c(n1)C(=O)CC1(CCN(C(=O)c3cc(OC)c4[nH]nc(C)c4c3)CC1)O2` [1.079], the 50% inhibitory concentration (IC50) under setting [1] was 12 nM.
For the molecule `Cn1cnc2ccc(C(=O)N3CCC4(CC3)CC(=O)c3nn(C(C)(C)C)cc3O4)cc21` [3.014], the IC50 under setting [1] came out at 21 nM.
As for `Cc1n[nH]c2c(C)cc(C(=O)N3CCC4(CC3)CC(=O)c3nn(C5CC5)cc3O4)cc12` [1.143], the IC50 under setting [1] came out at 7 nM.
Consider `CCn1nc2c(c1C)OC1(CCN(C(=O)c3ccc4cnsc4c3)CC1)CC2=O` [24.003], for which the IC50 under setting [1] amounted to 411 nM.
Still for that read-out and setting: under `Cc1cc(C(=O)N2CCC3(CC2)CC(=O)c2nn(C(C)(C)C)cc2O3)cc2ncn(C)c12` [8.001] stands 36 nM; under `Cc1n[nH]c2ccc(C(=O)N3CCC4(CC3)CC(=O)c3nn(C(C)(C)C)cc3O4)cc12` [1.086], 3 nM.
For `CC(C)n1cc2c(n1)C(=O)CC1(CCN(C(=O)c3cc(F)c4cn[nH]c4c3)CC1)O2` [2.015], the IC50 under setting [1] is 136 nM.
Still for that read-out and setting: under `Cc1nc2cc(C(=O)N3CCC4(CC3)CC(=O)c3nn(C(C)(C)C)cc3O4)ccc2n1C` [8.009] stands 47 nM; under `Cn1ncc2ccc(C(=O)N3CCC4(CC3)CC(=O)c3nn(C(C)(C)C)cc3O4)cc21` [2.013], 19 nM.
Same read-out and setting: under `COc1cc(C(=O)N2CCC3(CC2)CC(=O)c2nn(C(C)(C)C)cc2O3)cc2c(C)n[nH]c12` [1.076] stands 2 nM.
On to `CCc1cc(C(=O)N2CCC3(CC2)CC(=O)c2nn(CC)c(C)c2O3)cc2cn[nH]c12` [1.056], for which the IC50 under setting [1] was 35 nM.
Regarding `Cc1n[nH]c2ccc(C(=O)N3CCC4(CC3)CC(=O)c3nn(C5CCCCC5)cc3O4)cc12` [1.087], the IC50 under setting [1] came out at 135 nM.
For the molecule `Cc1cc(C(=O)N2CCC3(CC2)CC(=O)c2nn(C(C)C)cc2O3)cc2c1ncn2C` [3.009], under setting [1], the IC50 is 22 nM.
In the case of `CC(C)n1cc2c(n1)C(=O)CC1(CCN(C(=O)c3ccc4cnoc4c3)CC1)O2` [23.004], the IC50 under setting [1] is above 1000 nM.
In the case of `CCn1nc2c(c1C)OC1(CCN(C(=O)c3ccc4c(c3)NC(=O)CC4)CC1)CC2=O` [12.002], under setting [1], the IC50 was determined as 36 nM.
Still for that read-out and setting: with `CCn1nc2c(c1C)OC1(CCN(C(=O)c3ccc4c(c3)nc(O)n4C)CC1)CC2=O` [8.011] the figure was 186 nM.
Same read-out and setting: under `Cc1n[nH]c2c(C)cc(C(=O)N3CCC4(CC3)CC(=O)c3nn(C5CCOC5)cc3O4)cc12` (centres unmarked) [1.016] stands 22 nM; under `CCn1nc2c(c1C)OC1(CCN(C(=O)c3cc(OC)c4oc(C)nc4c3)CC1)CC2=O` [9.005], 179 nM; under `Cc1cc(C(=O)N2CCC3(CC2)CC(=O)c2nn(C(C)C)c(C)c2O3)cc2cn[nH]c12` [1.040], 15 nM.
For the molecule `Cc1cc(C(=O)N2CCC3(CC2)CC(=O)c2nn(C(C)(C)C)c(C)c2O3)cc2cn[nH]c12` [1.043], under setting [1], the half-maximal inhibitory concentration (IC50) came to 43 nM.
For `CCn1cc2c(n1)C(=O)CC1(CCN(C(=O)c3ccc4[nH]ncc4c3)CC1)O2` [1.069], the IC50 under setting [1] came to 197 nM.
With `Cc1n[nH]c2c(C)cc(C(=O)N3CCC4(CC3)CC(=O)c3nn(CC(C)C)cc3O4)cc12` [1.134], the IC50 under setting [1] was determined as 10 nM.
Still for that read-out and setting: with `Cc1nc2ccc(C(=O)N3CCC4(CC3)CC(=O)c3nn(C(C)C)cc3O4)cc2[nH]1` [3.012] the figure was 129 nM.
`CC(C)(C)n1cc2c(n1)C(=O)CC1(CCN(C(=O)c3cc(F)c4nc[nH]c4c3)CC1)O2` [3.022]: the IC50 under setting [1] was 14 nM.
On the same count and under the same terms, with `Cc1cc(C(=O)N2CCC3(CC2)CC(=O)c2nn(C(C)C)c(C)c2O3)cc2[nH]cnc12` [3.017] the figure was 14 nM.
Take `Cc1n[nH]c2c(C)cc(C(=O)N3CCC4(CC3)CC(=O)c3nn(C5CCCC5)cc3O4)cc12` [1.009]: under setting [1], the concentration for half-maximal inhibition (IC50) is 4 nM.
On to `CCn1nc2c(c1C)OC1(CCN(C(=O)c3ccc4ncsc4c3)CC1)CC2=O` [10.001], for which the IC50 under setting [1] worked out at 285 nM.
Consider `CCn1nc2c(c1C)OC1(CCN(C(=O)c3cc(C)c4ncn(C)c4c3)CC1)CC2=O` [3.025], for which the IC50 under setting [1] was 49 nM.
Take `CCn1nc2c(c1C)OC1(CCN(C(=O)c3ccc4c(C)n[nH]c4c3)CC1)CC2=O` [2.025]: the IC50 under setting [1] came to 44 nM.
For the molecule `Cc1c2c(nn1C(C)(C)C)C(=O)CC1(CCN(C(=O)c3ccc4[nH]ncc4c3)CC1)O2` [1.072], under setting [1], the IC50 was 61 nM.
